How the values were obtained:
[1] = biological target: T1, PDE1B (Homo sapiens, UniProt Q01064); experiment: IMAP phosphodiesterase assay, PDE1B; format: biochemical; conditions: PDE Target PDE1B
T1 construct: recombinant full length human PDEl A and PDE1B; made in house; host or cells: HEK or SF9 cells
Excerpt: Measurement of PDEIB Inhibition In Vitro Using IMAP Phosphodiesterase Assay Kit
Phosphodiesterase I B (PDEIB) is a calcium/calmodulin dependent phosphodiesterase enzyme that converts cyclic guanosine monophosphate (cGMP) to 5′-guanosine monophosphate (5′-GMP). PDEIB can also convert a modified cGMP substrate, such as the fluorescent molecule cGMP-fluorescein, to the corresponding GMP-fluorescein. The generation of GMP-fluorescein from cGMP-fluorescein can be quantitated, using, for example, the IMAP (Molecular Devices, Sunnyvale, CA) immobilized-metal affinity particle reagent.
Briefly, the IMAP reagent binds with high affinity to the free 5′-phosphate that is found in GMP-fluorescein and not in cGMP-fluorescein. The resulting GMP-fluorescein-IMAP complex is large relative to cGMP-fluorescein. Small fluorophores that are bound up in a large, slowly tumbling, complex can be distinguished from unbound fluorophores, because the photons emitted as they fluoresce retain the same polarity as the photons used to excite the fluorescence.
In the phosphodiesterase assay, cGMP-fluorescein, which cannot be bound to IMAP, and therefore retains little fluorescence polarization, is converted to GMP-fluorescein, which, when bound to IMAP, yields a large increase in fluorescence polarization (Amp). Inhibition of phosphodiesterase, therefore, is detected as a decrease in Amp.
Materials: All chemicals are available from Sigma-Aldrich (St. Louis, MO) except for IMAP reagents (reaction buffer, binding buffer, FL-GMP and IMAP beads), which are available from Molecular Devices (Sunnyvale, CA). […]
The FL-GMP conversion reaction is initiated by combining 4 parts enzyme and inhibitor mix with 1 part substrate solution (0.225 μM) in a 384-well microtiter plate. […] The plate is incubated at room temperature for 1 hour to allow IMAP binding to proceed to completion, and then placed in an Envision multimode microplate reader (PerkinElmer, Shelton, CT) to measure the fluorescence polarization (Amp).
A decrease in GMP concentration, measured as decreased Amp, is indicative of inhibition of PDE activity.

[2] = biological target: hPDE7B (Homo sapiens, UniProt Q9NP56); experiment: PDE selectivity assay, hPDE7B; format: biochemical; conditions: PDE Target hPDE7B
[3] = biological target: hPDE8A (Homo sapiens, UniProt O60658); experiment: PDE selectivity assay, hPDE8A; format: biochemical; conditions: PDE Target hPDE8A
Sequence of hPDE8A (O60658 whole entry): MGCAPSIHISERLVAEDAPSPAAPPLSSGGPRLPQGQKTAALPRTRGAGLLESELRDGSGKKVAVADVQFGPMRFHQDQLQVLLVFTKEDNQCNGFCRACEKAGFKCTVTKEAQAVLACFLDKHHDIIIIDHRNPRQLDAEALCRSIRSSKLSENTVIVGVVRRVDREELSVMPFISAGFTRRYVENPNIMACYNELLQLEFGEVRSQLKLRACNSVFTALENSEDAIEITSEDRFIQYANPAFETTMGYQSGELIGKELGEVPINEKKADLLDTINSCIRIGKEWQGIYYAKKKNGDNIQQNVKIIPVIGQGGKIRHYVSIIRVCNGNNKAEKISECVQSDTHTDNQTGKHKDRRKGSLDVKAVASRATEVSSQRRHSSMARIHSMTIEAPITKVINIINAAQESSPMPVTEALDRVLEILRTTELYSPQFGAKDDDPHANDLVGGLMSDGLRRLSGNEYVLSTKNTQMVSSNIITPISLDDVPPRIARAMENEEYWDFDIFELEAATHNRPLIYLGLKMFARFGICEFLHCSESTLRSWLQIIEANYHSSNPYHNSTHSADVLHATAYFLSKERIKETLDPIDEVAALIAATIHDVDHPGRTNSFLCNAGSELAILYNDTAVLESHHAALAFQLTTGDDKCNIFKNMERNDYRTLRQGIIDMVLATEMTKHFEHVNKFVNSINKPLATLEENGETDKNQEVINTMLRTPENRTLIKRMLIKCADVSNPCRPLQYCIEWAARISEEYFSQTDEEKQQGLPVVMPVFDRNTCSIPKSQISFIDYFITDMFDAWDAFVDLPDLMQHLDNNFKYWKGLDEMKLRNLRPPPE

[4] = biological target: hPDE9A (Homo sapiens, UniProt O76083); experiment: PDE selectivity assay, hPDE9A; format: biochemical; conditions: PDE Target hPDE9A
Sequence of hPDE9A (O76083 whole entry): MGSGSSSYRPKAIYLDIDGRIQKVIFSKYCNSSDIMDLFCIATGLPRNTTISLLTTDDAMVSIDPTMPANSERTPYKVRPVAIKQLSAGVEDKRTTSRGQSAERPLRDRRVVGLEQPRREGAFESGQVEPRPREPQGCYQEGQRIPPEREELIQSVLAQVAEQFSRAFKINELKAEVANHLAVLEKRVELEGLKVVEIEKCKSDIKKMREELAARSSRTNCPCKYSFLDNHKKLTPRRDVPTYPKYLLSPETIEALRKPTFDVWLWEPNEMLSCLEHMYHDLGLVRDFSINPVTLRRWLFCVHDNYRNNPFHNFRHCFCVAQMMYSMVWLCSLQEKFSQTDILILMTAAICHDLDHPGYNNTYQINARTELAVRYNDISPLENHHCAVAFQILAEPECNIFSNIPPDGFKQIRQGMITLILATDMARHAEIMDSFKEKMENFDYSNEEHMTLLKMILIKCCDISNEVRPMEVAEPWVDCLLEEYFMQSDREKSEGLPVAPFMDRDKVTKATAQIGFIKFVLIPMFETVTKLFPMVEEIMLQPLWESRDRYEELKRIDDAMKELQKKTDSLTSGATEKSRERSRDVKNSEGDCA

[5] = biological target: hPDE2A (Homo sapiens, UniProt O00408); experiment: PDE selectivity assay, hPDE2A; format: biochemical; conditions: PDE Target hPDE2A
Sequence of hPDE2A (O00408 whole entry): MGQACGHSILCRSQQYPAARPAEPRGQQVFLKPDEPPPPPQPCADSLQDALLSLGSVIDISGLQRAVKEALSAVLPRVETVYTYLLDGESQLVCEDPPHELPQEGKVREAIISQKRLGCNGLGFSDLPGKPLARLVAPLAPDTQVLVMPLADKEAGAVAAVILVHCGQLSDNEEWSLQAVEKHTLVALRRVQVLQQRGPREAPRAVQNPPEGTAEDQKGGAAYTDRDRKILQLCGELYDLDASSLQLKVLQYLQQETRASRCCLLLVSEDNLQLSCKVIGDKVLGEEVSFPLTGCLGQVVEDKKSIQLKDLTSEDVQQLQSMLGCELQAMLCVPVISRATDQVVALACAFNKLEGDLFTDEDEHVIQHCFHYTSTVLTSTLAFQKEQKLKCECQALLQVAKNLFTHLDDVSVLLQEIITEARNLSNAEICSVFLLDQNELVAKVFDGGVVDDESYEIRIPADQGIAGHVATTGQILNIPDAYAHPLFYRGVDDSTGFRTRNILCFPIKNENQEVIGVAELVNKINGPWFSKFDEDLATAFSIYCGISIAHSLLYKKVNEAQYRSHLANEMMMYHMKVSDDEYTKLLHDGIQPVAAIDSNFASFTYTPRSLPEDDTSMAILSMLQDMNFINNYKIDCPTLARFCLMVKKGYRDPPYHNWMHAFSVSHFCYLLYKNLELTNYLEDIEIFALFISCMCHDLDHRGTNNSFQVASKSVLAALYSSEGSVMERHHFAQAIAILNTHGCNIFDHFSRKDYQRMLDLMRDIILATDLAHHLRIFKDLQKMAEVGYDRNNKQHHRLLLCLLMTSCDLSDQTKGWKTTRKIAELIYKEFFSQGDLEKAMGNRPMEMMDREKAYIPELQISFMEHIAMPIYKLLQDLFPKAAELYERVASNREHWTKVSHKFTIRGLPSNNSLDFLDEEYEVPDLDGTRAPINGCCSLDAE

[6] = biological target: PDE1C (Homo sapiens, UniProt Q14123); experiment: IMAP phosphodiesterase assay, PDE1C; format: biochemical; conditions: PDE Target PDE1C
[7] = biological target: T2, PDE1A (Homo sapiens, UniProt P54750); experiment: IMAP phosphodiesterase assay, PDE1A; format: biochemical; conditions: PDE Target PDE1A
T2 construct: recombinant full length human PDEl A and PDE1B; made in house; host or cells: HEK or SF9 cells

[8] = biological target: r-bovine PDE5 (Bos taurus, UniProt Q28156); experiment: PDE selectivity assay, r-bovine PDE5; format: biochemical; conditions: PDE Target r-bovine PDE5
[9] = biological target: hPDE11 (Homo sapiens, UniProt Q9HCR9); experiment: PDE selectivity assay, hPDE11; format: biochemical; conditions: PDE Target hPDE11
Sequence of hPDE11 (Q9HCR9 whole entry): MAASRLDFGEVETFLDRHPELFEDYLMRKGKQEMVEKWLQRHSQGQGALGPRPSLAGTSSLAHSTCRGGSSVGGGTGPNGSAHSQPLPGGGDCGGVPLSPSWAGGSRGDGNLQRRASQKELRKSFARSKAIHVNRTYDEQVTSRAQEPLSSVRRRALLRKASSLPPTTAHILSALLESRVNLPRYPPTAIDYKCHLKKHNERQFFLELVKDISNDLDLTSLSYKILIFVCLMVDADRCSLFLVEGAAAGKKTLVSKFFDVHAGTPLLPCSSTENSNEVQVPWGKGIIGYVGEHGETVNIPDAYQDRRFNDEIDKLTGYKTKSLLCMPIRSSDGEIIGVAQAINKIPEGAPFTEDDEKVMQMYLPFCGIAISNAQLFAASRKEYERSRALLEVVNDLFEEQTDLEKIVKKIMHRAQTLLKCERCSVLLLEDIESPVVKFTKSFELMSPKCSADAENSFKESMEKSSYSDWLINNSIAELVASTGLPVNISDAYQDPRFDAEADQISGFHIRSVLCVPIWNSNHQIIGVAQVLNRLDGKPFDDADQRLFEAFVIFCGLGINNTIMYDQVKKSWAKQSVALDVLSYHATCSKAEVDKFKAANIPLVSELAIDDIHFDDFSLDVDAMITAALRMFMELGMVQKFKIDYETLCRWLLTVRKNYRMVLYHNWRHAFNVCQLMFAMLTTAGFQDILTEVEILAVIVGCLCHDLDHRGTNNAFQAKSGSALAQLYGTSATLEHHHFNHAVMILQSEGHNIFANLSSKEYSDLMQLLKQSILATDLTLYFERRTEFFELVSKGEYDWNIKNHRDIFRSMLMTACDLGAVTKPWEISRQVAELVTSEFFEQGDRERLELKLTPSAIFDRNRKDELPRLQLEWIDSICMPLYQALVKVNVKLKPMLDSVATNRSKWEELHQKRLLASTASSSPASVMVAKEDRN

[10] = biological target: T3, bovine PDE6 (Bos taurus, UniProt P11541+P23439); experiment: PDE selectivity assay, bovine PDE6; format: biochemical; conditions: PDE Target bovine PDE6
T3 sequence (P11541 2-856 limits assumed): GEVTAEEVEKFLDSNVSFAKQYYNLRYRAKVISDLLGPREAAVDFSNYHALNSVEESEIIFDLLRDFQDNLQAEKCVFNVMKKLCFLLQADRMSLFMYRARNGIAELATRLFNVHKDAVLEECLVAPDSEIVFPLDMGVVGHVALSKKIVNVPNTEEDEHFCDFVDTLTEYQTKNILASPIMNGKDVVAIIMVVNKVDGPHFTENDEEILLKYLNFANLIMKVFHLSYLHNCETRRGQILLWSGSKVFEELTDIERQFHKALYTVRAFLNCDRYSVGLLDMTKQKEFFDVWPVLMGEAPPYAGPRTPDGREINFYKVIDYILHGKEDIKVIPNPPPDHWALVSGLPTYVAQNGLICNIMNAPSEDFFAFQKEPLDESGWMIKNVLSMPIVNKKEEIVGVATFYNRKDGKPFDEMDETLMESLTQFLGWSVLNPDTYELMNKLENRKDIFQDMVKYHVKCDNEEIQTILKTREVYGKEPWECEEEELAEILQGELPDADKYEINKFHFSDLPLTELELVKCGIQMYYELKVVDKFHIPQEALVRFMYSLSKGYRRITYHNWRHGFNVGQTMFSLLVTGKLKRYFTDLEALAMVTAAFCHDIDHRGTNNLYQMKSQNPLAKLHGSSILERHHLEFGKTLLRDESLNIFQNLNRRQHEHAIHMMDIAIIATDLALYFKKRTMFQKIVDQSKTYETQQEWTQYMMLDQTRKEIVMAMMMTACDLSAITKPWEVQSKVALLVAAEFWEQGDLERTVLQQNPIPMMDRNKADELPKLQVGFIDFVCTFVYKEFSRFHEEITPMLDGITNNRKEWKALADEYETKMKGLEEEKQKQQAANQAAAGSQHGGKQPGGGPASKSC
T3 sequence (P23439 2-850 limits assumed): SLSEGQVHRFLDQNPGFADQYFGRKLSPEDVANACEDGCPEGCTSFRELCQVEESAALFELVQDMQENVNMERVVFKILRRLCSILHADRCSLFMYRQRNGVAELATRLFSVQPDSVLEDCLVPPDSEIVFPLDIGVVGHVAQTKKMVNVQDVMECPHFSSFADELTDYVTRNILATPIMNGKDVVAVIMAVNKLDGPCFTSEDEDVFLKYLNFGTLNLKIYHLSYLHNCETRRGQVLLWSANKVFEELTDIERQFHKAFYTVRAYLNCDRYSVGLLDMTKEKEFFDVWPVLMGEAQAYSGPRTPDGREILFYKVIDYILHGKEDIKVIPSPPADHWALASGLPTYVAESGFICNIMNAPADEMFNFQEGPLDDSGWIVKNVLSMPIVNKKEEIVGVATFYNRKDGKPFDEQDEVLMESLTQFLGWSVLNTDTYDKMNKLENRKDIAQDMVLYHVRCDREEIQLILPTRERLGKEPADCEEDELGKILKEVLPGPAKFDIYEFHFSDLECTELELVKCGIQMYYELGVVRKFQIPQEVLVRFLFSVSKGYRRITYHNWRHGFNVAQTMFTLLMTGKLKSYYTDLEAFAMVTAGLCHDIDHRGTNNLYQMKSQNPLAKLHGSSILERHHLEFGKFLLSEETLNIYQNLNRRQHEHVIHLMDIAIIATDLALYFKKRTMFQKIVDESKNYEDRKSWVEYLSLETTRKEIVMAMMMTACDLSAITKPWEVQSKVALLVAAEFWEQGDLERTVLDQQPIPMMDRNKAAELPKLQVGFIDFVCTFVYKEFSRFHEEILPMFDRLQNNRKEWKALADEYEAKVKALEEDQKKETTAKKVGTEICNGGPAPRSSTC

[11] = biological target: hPDE3B (Homo sapiens, UniProt Q13370); experiment: PDE selectivity assay, hPDE3B; format: biochemical; conditions: PDE Target hPDE3B
Sequence of hPDE3B (Q13370 whole entry): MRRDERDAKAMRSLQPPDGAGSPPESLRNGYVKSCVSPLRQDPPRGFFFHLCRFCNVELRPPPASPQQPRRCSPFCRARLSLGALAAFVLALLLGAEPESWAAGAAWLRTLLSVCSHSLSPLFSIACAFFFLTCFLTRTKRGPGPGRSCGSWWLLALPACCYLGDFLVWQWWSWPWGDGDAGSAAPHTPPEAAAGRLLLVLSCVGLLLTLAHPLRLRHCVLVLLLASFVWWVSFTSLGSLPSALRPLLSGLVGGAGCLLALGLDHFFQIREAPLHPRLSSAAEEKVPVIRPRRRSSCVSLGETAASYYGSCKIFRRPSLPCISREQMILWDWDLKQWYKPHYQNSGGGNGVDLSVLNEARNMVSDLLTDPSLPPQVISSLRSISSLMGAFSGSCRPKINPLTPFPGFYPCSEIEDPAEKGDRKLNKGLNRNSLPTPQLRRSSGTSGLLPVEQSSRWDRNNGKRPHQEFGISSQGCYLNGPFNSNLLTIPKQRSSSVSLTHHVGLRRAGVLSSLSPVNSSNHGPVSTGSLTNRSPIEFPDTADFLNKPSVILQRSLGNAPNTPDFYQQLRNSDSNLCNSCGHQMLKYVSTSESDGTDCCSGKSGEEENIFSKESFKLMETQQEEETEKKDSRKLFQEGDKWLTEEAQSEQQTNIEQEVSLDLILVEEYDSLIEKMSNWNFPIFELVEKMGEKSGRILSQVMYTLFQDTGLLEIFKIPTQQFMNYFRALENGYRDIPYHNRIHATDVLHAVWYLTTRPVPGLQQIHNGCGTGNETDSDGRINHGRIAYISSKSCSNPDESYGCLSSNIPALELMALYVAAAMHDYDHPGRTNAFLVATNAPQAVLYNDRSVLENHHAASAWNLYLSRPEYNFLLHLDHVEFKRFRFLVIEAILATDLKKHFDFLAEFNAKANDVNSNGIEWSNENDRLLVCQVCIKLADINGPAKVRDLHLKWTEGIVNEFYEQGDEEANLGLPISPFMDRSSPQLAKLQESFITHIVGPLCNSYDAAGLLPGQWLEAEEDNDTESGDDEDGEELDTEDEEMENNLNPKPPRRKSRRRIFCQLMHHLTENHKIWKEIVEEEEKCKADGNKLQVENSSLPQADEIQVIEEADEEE

[12] = biological target: hPDE10A (Homo sapiens, UniProt Q9Y233); experiment: PDE selectivity assay, hPDE10A; format: biochemical; conditions: PDE Target hPDE10A
[13] = biological target: hPDE4A1A (Homo sapiens, UniProt P27815); experiment: PDE selectivity assay, hPDE4A1A; format: biochemical; conditions: PDE Target hPDE4A1A
Sequence of hPDE4A1A (P27815 1-647 isoform P27815-4): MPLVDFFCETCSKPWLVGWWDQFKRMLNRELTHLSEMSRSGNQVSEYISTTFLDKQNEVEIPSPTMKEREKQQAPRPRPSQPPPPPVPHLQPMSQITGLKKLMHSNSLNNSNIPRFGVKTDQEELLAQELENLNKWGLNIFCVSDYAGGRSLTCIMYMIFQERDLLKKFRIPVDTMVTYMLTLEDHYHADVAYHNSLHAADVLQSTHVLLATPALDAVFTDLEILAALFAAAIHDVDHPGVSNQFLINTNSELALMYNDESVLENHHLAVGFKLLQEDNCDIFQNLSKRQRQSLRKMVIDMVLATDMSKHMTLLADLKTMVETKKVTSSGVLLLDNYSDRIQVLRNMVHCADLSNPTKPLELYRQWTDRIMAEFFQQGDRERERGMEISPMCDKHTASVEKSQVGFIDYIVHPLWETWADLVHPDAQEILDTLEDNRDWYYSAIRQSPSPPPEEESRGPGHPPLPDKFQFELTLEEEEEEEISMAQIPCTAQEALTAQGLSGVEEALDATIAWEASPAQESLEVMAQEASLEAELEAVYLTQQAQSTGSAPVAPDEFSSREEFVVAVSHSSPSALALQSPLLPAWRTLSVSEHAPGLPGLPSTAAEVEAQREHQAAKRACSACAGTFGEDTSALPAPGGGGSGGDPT

[14] = Circulating metabolites in human plasma after oral administration of Compound 1; format: in vivo; conditions: after oral administration of Compound 1 (parent)

Work on CN1C(=O)c2c(nn(Cc3ccc(-c4cccc(F)n4)cc3)c2Nc2ccc(O)cc2)N2C1=N[C@@H]1CCC[C@@H]12 [Compound 1] yielded an IC50 [1] of 29 nM, an IC50 [2] of 6610 nM and an IC50 [3] of 4170 nM. It also gave an IC50 [4] of over 100000 nM, an IC50 [5] of over 100000 nM and an IC50 [6] of 1.3 nM. The IC50 [7] was 1.3 nM, the IC50 [8] was 2480 nM and the IC50 [9] was 5440 nM. For the same molecule, the IC50 [10] was 4340 nM, the IC50 [11] was 49700 nM and the IC50 [12] was over 100000 nM. It also gave an IC50 [13] of 3660 nM.

With CN1C(=O)c2c(nn(Cc3ccc(-c4cccc(F)n4)cc3)c2Nc2ccccc2)N2C1=N[C@]1(O)CCC[C@H]21 [Compound 2] the IC50 [1] was 0.015 nM, the IC50 [2] was 118 nM and the IC50 [3] was 418 nM. For the same molecule, the IC50 [4] was over 10000 nM, the IC50 [5] was about 10000 nM and the IC50 [6] was 0.042 nM. For the same molecule, the IC50 [7] was 0.042 nM, the IC50 [8] was 3.1 nM and the IC50 [9] was 454 nM. It also gave an IC50 [10] of 34 nM, an IC50 [11] of about 10000 nM and an IC50 [12] of over 10000 nM. The IC50 [13] was 22 nM.

CN1C(=O)c2c(nn(Cc3ccc(-c4cccc(F)n4)cc3)c2Nc2ccc(O)cc2)N2C1=N[C@]1(O)CCC[C@H]21 [Compound 3] showed an IC50 [1] of 1.4 nM, an IC50 [2] of 1240 nM and an IC50 [3] of 3420 nM. For the same molecule, the IC50 [4] was over 100000 nM, the IC50 [5] was 73400 nM and the IC50 [6] was 5.4 nM. It also gave an IC50 [7] of 6.3 nM, an IC50 [8] of 156 nM and an IC50 [9] of 396 nM. For the same molecule, the IC50 [10] was 294 nM, the IC50 [11] was 20900 nM and the IC50 [12] was 67400 nM. For the same molecule, the IC50 [13] was 840 nM.

For CN1C(=O)c2c(nn(Cc3ccc(-c4cccc(F)n4)cc3)c2Nc2ccccc2)N2C1=N[C@]1(O)CCC[C@H]21 [M-I], the “share of the total circulating drug related materials in human plasma” value [14] was 84%.

Reference: US12410175B2, “Compounds” (INTRA-CELLULAR THERAPIES, INC., priority 2019, dated 2025)
